# Measured values reported in PMC3621123 (Journal of medicinal chemistry, 2013).
# “And” between values parts separate entries of the source, which are not always exact repeats. Equal entries are not always repeated. Where two headings read alike, the source gives them in different places.
# How the values were obtained:
# BasE [1] = target: T1, BasE (Acinetobacter baumannii, UniProt A0A0D5YGP3); conditions: read-out: KD1, equilibrium dissociation constant of probe 14 for BasE; cited from earlier work
# E. coli = conditions: ref unpublished results, Brian Beck, Laura Celia, ATCC; cited from earlier work
# K. pneumoniae = conditions: ref unpublished results, Brian Beck, Laura Celia, ATCC; cited from earlier work
# P. aeruginosa = conditions: ref unpublished results, Brian Beck, Laura Celia, ATCC; cited from earlier work
# A. baumannii = conditions: ref unpublished results, Brian Beck, Laura Celia, ATCC; cited from earlier work
# BasE [2] = target: T1, BasE; experiment: biochemical; format: binding; conditions: for fold loss of affinity/potency toward BasE relative to 15: ratio of KD to lead compound 15; for Kd: KD (nM) BasE, FP displacement, 20 nM Fl-Sal-AMS 14, 200 nM BasE, pH 7.5, 25 °C; for fold increase in affinity toward BasE relative to 15: ratio of KD of lead compound 15 to compound
# MbtA = MbtA (Mycobacterium tuberculosis, UniProt P71716); experiment: Fluorescence polarization displacement of Fl-Sal-AMS 14 from MbtA; format: binding; conditions: for fold loss of affinity toward MbtA relative to 15: ratio of KD to lead compound 15
# Chain of MbtA (P71716 whole entry): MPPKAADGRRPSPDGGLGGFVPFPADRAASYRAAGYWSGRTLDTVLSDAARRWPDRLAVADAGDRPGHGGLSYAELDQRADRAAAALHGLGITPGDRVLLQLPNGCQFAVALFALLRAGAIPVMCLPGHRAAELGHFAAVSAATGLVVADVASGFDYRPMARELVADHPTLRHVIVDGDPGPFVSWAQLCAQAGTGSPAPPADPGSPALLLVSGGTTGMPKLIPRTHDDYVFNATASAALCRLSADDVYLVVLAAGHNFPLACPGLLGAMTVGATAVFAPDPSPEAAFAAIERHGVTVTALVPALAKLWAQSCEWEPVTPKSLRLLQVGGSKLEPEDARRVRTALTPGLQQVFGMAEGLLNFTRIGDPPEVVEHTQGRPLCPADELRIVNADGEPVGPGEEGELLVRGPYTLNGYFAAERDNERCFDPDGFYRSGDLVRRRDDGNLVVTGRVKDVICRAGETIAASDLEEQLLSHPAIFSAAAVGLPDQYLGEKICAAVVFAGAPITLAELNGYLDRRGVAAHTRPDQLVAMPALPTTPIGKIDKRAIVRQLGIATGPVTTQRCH
Compound,fold loss of affinity/potency toward BasE relative to 15 (BasE [2]),also measured
22-O-{2-[2-(2-{[(fluorescein-5-yl)carbonyl]amino}ethoxy)ethoxy]ethoxy}-52-O-[N-(salicyl)sulfamoyl]adenosine [Compound 14],,Kd (BasE [1]): 0.0843 µM
"Nc1ncnc2c1ncn2[C@@H]1O[C@H](COS(=O)(=O)NC(=O)c2cccc(O)c2O)[C@@H](O)[C@H]1O [2,3-DHB-AMS, 5′-O-[N-(2,3-dihydroxybenzoyl)sulfamoyl]adenosine]",,activity against E. coli (E. coli): no activity; activity against K. pneumoniae (K. pneumoniae): no activity; activity against P. aeruginosa (P. aeruginosa): no activity; activity against A. baumannii (A. baumannii): no activity
"O=C(O)c1cc(-c2ccccc2)cc2c1cnn2Cc1ccncc1 [Compound 16, 6-Phenyl-1-(pyridin-4-ylmethyl)-1H-indazole-4-carboxylic acid]",2 fold,
"O=C(O)c1cc(-c2ccccc2)cc2c1ccn2Cc1ccncc1 [Compound 17, 6-Phenyl-1-(pyridin-4-ylmethyl)-1H-indole-4-carboxylic acid]",1400 fold,
"CCOC(=O)c1cc(-c2ccccc2)nc2c1cnn2Cc1ccncc1 [Compound 18, Ethyl 6-phenyl-1-(pyridin-4-ylmethyl)-1H-pyrazolo[3,4-b]pyridine-4-carboxylate]",60 fold,
"OCc1cc(-c2ccccc2)nc2c1cnn2Cc1ccncc1 [Compound 19, 4-Hydroxymethyl-6-phenyl-1-(pyridin-4-ylmethyl)-1H-pyrazolo[3,4-b]pyridine]",2.8 fold and 3 fold,
"Nc1cc(-c2ccccc2)nc2c1cnn2Cc1ccncc1 [Compound 21, 6-Phenyl-1-(pyridin-4-ylmethyl)-1H-pyrazolo[3,4-b]pyridin-4-amine]",approximately 6 fold,
"NC(=O)c1cc(-c2ccccc2)nc2c1cnn2Cc1ccncc1 [Compound 22, 6-Phenyl-1-(pyridin-4-ylmethyl)-1H-pyrazolo[3,4-b]pyridine-4-carboxamide]",1.8 fold and 2 fold,
"O=C(O)c1cc(-c2ccccc2)nc2c1cnn2Cc1ccc(O)cc1 [Compound 32, 1-(4-Hydroxybenzyl)-6-phenyl-1H-pyrazolo[3,4-b]pyridine-4-carboxylic acid]",15 fold,
Cc1ccc(-c2cc(C(=O)O)c3cnn(Cc4ccncc4)c3n2)cc1 [Compound 39],,fold increase in affinity toward MbtA relative to 15 (MbtA; ratio of KD of lead compound 15 to compound): 2.6 fold
O=C(O)c1cc(-c2ccccc2O)nc2c1cnn2Cc1ccncc1 [Compound 40],7 fold,
"O=C(O)c1cc(-c2ccc(O)cc2)nc2c1cnn2Cc1ccncc1 [Compound 42, 6-(4-Hydroxyphenyl)-1-(pyridin-4-ylmethyl)-1H-pyrazolo[3,4-b]pyridine-4-carboxylic acid]",,Kd (BasE [2]): < 10 nM; fold increase in affinity toward BasE relative to 15 (BasE [2]): more than 4 fold
O=C(O)c1cc(-c2cccc(Cl)c2)nc2c1cnn2Cc1ccncc1 [Compound 45],,Kd (BasE [2]): < 10 nM; fold increase in affinity toward BasE relative to 15 (BasE [2]): more than 4 fold
Nc1ccc(-c2cc(C(=O)O)c3cnn(Cc4ccncc4)c3n2)cc1 [Compound 52],2.2 fold,
CC(=O)Nc1ccc(-c2cc(C(=O)O)c3cnn(Cc4ccncc4)c3n2)cc1 [Compound 54],over 20 fold,
O=C(O)c1ccc(-c2cc(C(=O)O)c3cnn(Cc4ccncc4)c3n2)cc1 [Compound 58],over 20 fold,fold loss of affinity toward MbtA relative to 15 (MbtA): 2 fold
COc1ccc(-c2cc(C(=O)O)c3cnn(Cc4ccncc4)c3n2)cc1 [Compound 62],2.2 fold,

Compound,fold loss of affinity/potency toward BasE relative to 15 (BasE [2]),also measured
O=C(O)c1cc(-c2ccc(OCc3ccccc3)cc2)nc2c1cnn2Cc1ccncc1 [Compound 67],,Kd (BasE [2]): 2 nM and < 10 nM; fold increase in affinity toward BasE relative to 15 (BasE [2]): 17 fold
COc1ccc(COc2ccc(-c3cc(C(=O)O)c4cnn(Cc5ccncc5)c4n3)cc2)cc1 [Compound 68],,fold less potent than 67 toward BasE (BasE [2]; relative to p-benzyloxy 67): 21 fold
O=C(c1ccccc1)c1ccc(-c2cc(C(=O)O)c3cnn(Cc4ccncc4)c3n2)cc1 [Compound 70],,Kd (BasE [2]): 19 nM; fold increase in affinity toward BasE relative to 15 (BasE [2]): 2 fold
O=C(O)c1cc(-c2ccc(-c3ccccc3)cc2)nc2c1cnn2Cc1ccncc1 [Compound 72],3.5 fold,
O=C(O)c1cc(-c2ccco2)nc2c1cnn2Cc1ccncc1 [Compound 75],~ 10 fold,
O=C(O)c1cc(-c2cccs2)nc2c1cnn2Cc1ccncc1 [Compound 76],~ 10 fold,
Cc1ccsc1-c1cc(C(=O)O)c2cnn(Cc3ccncc3)c2n1 [Compound 77],9 fold,
Cc1csc(-c2cc(C(=O)O)c3cnn(Cc4ccncc4)c3n2)c1 [Compound 78],2.4 fold,
Cc1ccc(-c2cc(C(=O)O)c3cnn(Cc4ccncc4)c3n2)s1 [Compound 79],,Kd (BasE [2]): < 10 nM; fold increase in affinity toward BasE relative to 15 (BasE [2]): 5 fold
O=C(O)c1cc(-c2cncc3ccccc23)nc2c1cnn2Cc1ccncc1 [Compound 86],215 fold,
O=C(O)c1cc(-c2ccc3[nH]ccc3c2)nc2c1cnn2Cc1ccncc1 [Compound 87],1.7 fold,
C=Cc1cc(C(=O)O)c2cnn(Cc3ccncc3)c2n1 [Compound 91],~ 55 fold,
O=C(O)c1cc(/C=C/c2ccccc2)nc2c1cnn2Cc1ccncc1 [Compound 92],~ 10 fold,
"C#Cc1cc(C(=O)O)c2cnn(Cc3ccncc3)c2n1 [Compound 93, 6-Ethynyl-1-(pyridin-4-ylmethyl)-1H-pyrazolo[3,4-b]pyridine-4-carboxylic acid]",~ 55 fold,
"O=C(O)c1cc(C#Cc2ccccc2)nc2c1cnn2Cc1ccncc1 [Compound 94, 6-(Phenylethynyl)-1-(pyridin-4-ylmethyl)-1H-pyrazolo[3,4-b]pyridine-4-carboxylic acid]",~ 10 fold,
"O=C(O)c1cc(=O)[nH]c2c1cnn2Cc1ccncc1 [Compound 98, 6-Oxo-1-(pyridin-4-ylmethyl)-6,7-dihydro-1H-pyrazolo[3,4-b]pyridine-4-carboxylic acid]",> 2800 fold,
"O=C(O)c1cc(-c2ccccc2)cc2nn(Cc3ccncc3)cc12 [Compound 99, 6-Phenyl-2-(pyridin-4-ylmethyl)-2H-indazole-4-carboxylic acid]",1800 fold,fold loss of affinity toward MbtA relative to 15 (MbtA): 15.5 fold
